Literature values, collected in patent US20250311721A1, “UREA COMPLEXES OF ACTIVE INGREDIENTS” (priority 2022, published 2025).

For O=C(NCCc1ncc(C(F)(F)F)cc1Cl)c1ccccc1C(F)(F)F [Fluopyram], the “solubility in DMSO” value (DMSO) is listed as greater than 250 mg/mL and the “solubility in ethyl acetate” value (ethyl acetate) is listed as greater than 250 mg/mL.
